# The supplement of paper PMC6206229
# Columns and labels:
# [1] = test system: Staphylococcus aureus ATCC 29213 (MSSA); experiment: minimum inhibitory concentration; extreme values may be limits of the assay
# How it was run: (§1)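 The minimum inhibitory concentration was defined as the lowest concentration whose well remained blue rather than becoming pink. It was measured against methicillin-susceptible and methicillin-resistant Staphylococcus aureus by broth microdilution in 96-well plates according to CLSI guidance, with compounds at 0 to 100 µM incubated for 24 h at 37°C before 30 µl of 0.015% resazurin was added for 2–4 h. Each plate included positive controls.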
# [2] = test system: Staphylococcus aureus ATCC 700699 (MRSA); experiment: as above
# How it was run: as §1
SMILES,minimum inhibitory concentration [1],minimum inhibitory concentration [2]
CC(C)(C(=O)Nc1ccc(F)cc1)n1cc(-c2ccccc2F)cn1,> 50 µM,> 50 µM
Clc1cccc(C(c2ccc(CN3CCNCC3)cc2)n2ccnc2)c1 (configuration not stated),> 50 µM,> 50 µM
Cc1ccc2c(c1C)NC(=O)C21NN=C(c2ccccc2)S1 (configuration not stated),> 50 µM,> 50 µM
CC1(C)Cc2c(c(N3CCOCC3)nc3snc(Br)c23)CO1,> 50 µM,> 50 µM
FC(F)(F)c1cccc(-c2nc3c(NCc4ccncc4)nccc3[nH]2)c1,> 50 µM,> 50 µM
N#Cc1nc(-c2ccccc2)oc1S(=O)(=O)c1ccc(Cl)cc1,> 50 µM,> 50 µM
CC(C)n1nc(-c2cc3c(Cl)cccc3[nH]2)c2c(N)ncnc21,> 50 µM,> 50 µM
OCc1ccc(-c2cncc(Nc3cccc(Cl)c3)c2)cc1,> 50 µM,> 50 µM
Cc1cccc(C(=O)Nc2ccnc(N(C)C3CCN(CC(C)C)CC3)c2)c1,> 50 µM,> 50 µM
COc1ccc(Cn2cnc3c(-c4ccco4)nc(Cl)nc32)cc1,> 50 µM,> 50 µM
CC(C)C(NC(=O)Cc1cccc2ccccc12)C(=O)Nc1cccc(C#N)c1 (configuration not stated),> 50 µM,> 50 µM
CC(C)(C)c1ccc(N[C@@H]2CCCC[C@H]2NC(=O)c2ccco2)cc1,> 50 µM,> 50 µM
O=C(c1cc2ccccc2o1)N1CCN(Cc2ccc3c(c2)OCO3)CC1,> 50 µM,> 50 µM
CC1CS(=O)(=O)CCN1/N=C/c1ccc([N+](=O)[O-])o1 (configuration not stated),> 50 µM,> 50 µM
Cn1ccnc1CNCCS(=O)(=O)c1cccc(Nc2ccc(-c3cccc(F)c3)cn2)c1,> 50 µM,> 50 µM
CC(C)c1ncc(-c2ccncc2)c([C@H]2CC[C@H](CNC(=O)c3cccnc3)CC2)n1,> 50 µM,> 50 µM
Cc1cc(C)c2cc(C(=O)NC3CCCCCCC3)[nH]c2c1,> 50 µM,> 50 µM
Cc1[nH]c2ccccc2c1C(c1cccs1)N1CCN(C)CC1 (configuration not stated),50 µM,50 µM
CCc1ccccc1-n1c(C)cn2c3c(=O)n(C(C(=O)OC)C(C)C)c(=O)n(C)c3nc12 (configuration not stated),> 50 µM,> 50 µM
COc1cccc(-c2cc3c(Nc4cccnc4)nccc3[nH]2)c1,> 50 µM,> 50 µM
Cn1ncc2c(N3CCOCC3)nc(NCCc3c[nH]c4ccccc34)nc21,> 50 µM,> 50 µM
Cc1cccc(NC(=O)c2cc(S(=O)(=O)N(C)c3ccc(F)cc3)ccc2Cl)n1,> 50 µM,> 50 µM
Nc1ncc(-c2cn[nH]c2)cc1-c1nc2cc(Cl)cnc2[nH]1,> 50 µM,> 50 µM
O[C@@H](c1cc(C(F)(F)F)nc2c(C(F)(F)F)cccc12)[C@H]1CCCCN1,50 µM,25 µM

SMILES,minimum inhibitory concentration [1],minimum inhibitory concentration [2]
COc1cc(CN2CCC3(C=Cc4ccccc43)CC2)cc2c1OCO2,> 50 µM,> 50 µM
O=C(Nc1ccccc1-c1nc2c(C(=O)O)cccc2o1)c1ccccc1,> 50 µM,> 50 µM
CC1=Nc2ccc(Cl)cc2C(c2ccccc2)N1CCNC(=O)CN(C)C (configuration not stated),> 50 µM,> 50 µM
c1coc(CNc2nc(N3CCCCC3)nc3ccccc23)c1,> 50 µM,> 50 µM
c1ccc(Oc2ccc(-c3cc(N4CCOCC4)[nH]n3)cc2)cc1,> 50 µM,> 50 µM
N=C(N)c1ccc(-c2cc(-c3ccccc3)on2)cc1,> 50 µM,> 50 µM
CCOc1ccc(-c2nc(CNCCc3ccc(F)cc3)cs2)cc1,> 50 µM,> 50 µM
O=S(=O)(c1ccc(Cl)cc1)N1CCN(C(=S)NCc2ccco2)CC1,> 50 µM,> 50 µM
O=C1N(Cc2cc3ccccc3s2)CC2CN(Cc3ccccc3)CCN12 (configuration not stated),> 50 µM,> 50 µM
CC(=O)Nc1ccc(NC(=O)c2cc(-c3cc(Cl)ccc3O)n[nH]2)cc1,> 50 µM,> 50 µM
Cc1cc(NC(=O)c2ccc(Oc3ccc(Cl)cc3O)o2)no1,> 50 µM,50 µM
Nc1ncnc2[nH]nc(Cc3cccc4ccccc34)c12,> 50 µM,> 50 µM
C[C@H](C(N)=O)N1CCCC[C@H]1c1ccc(OCc2cccc(F)c2)cc1,> 50 µM,> 50 µM
O=C(COc1cccc(F)c1)Nc1nc(-c2ccccn2)cs1,> 50 µM,> 50 µM
c1csc(-c2cnc3sc(NCC4CCOCC4)nn23)c1,> 50 µM,> 50 µM
CS(=O)(=O)c1ccccc1C(=O)N(Cc1ccccc1)c1ccccc1,> 50 µM,> 50 µM
Cc1ccc(-c2nc(CN(Cc3ccccn3)C(C)C)cs2)o1,> 50 µM,> 50 µM
CN(C)c1cc(NC(=O)Nc2ccccc2)c2ccccc2n1,> 50 µM,> 50 µM
COC(=O)c1c(NC(=O)c2c(F)c(F)c(F)c(F)c2F)sc2c1CCCCC2,> 50 µM,> 50 µM
CC(C)(C)c1cc(C(=O)Nc2cccnc2)cc(C(=O)Nc2cccnc2)c1,> 50 µM,> 50 µM
CN1CCN(S(=O)(=O)c2ccc(-c3ccc4c(Nc5ccc6nn[nH]c6c5)ccnc4c3)cc2)CC1,> 50 µM,> 50 µM
COc1ccc(-c2nc(-c3cccc(NC(=O)Cc4ccc(F)cc4)c3)no2)cc1OC,> 50 µM,> 50 µM
CC1(C)OB(O)c2ccc(C3=NOC(c4cc(Cl)c(F)c(Cl)c4)(C(F)(F)F)C3)cc21 (configuration not stated),6.25 µM,6.25 µM
Nc1nc2cc(-c3cncc(Oc4ccc(F)cc4)c3)ccc2[nH]1,50 µM,50 µM

SMILES,minimum inhibitory concentration [1],minimum inhibitory concentration [2]
CCc1ccc(C(NCc2nc(N)nc(N(C)C)n2)C(C)C)cc1 (configuration not stated),> 50 µM,> 50 µM
CCOC(=O)c1noc(N)c1-c1ccccc1,50 µM,50 µM
O=C1COCc2ccc(Br)cc2N1Cc1ccc(C(F)(F)F)cc1,> 50 µM,> 50 µM
CNC1C(OC2C(OC3C(O)C(O)C(N=C(N)N)C(O)C3N=C(N)N)OC(C)C2(O)C=O)OC(CO)C(O)C1O (configuration not stated),> 50 µM,> 50 µM
Cc1ccc(Oc2ccc(NC(=O)CNc3ccccc3N3CCCC3=O)cc2)cc1,> 50 µM,> 50 µM
CCc1nc2ccccc2n1CC(O)COc1cc(C)ccc1Cl (configuration not stated),> 50 µM,> 50 µM
CCCCOC(=O)Nc1cc2nc(C3CCCCC3)[nH]c2cc1N1CCCC1,> 50 µM,> 50 µM
O=C(Nc1ccc(N2CCNCC2)nc1)c1oc(-c2ccccc2)nc1C(F)(F)F,> 50 µM,> 50 µM
Cc1noc(C)c1COc1cccc(C(=O)N=c2[nH]cccc2C)c1,> 50 µM,> 50 µM
COc1ccc(CN2CCOc3ccc(C(C)(O)CN(C)C)cc3C2)cc1C (configuration not stated),> 50 µM,> 50 µM
CC(=O)NC[C@@H]1CN(c2ccc(N3CCOCC3)c(F)c2)C(=O)O1,6.25 µM,3.12 µM
CC(C(=O)N1CCCC1)N1CCN(S(=O)(=O)c2ccc(C(C)(C)C)cc2)CC1 (configuration not stated),> 50 µM,> 50 µM
Nc1ncnc2c1ncn2C[C@@H](O)[C@@H](O)C(=O)O,> 50 µM,> 50 µM
c1cncc(NCc2ccc(-c3cc4ccncc4cc3OC3CCNCC3)s2)c1,> 50 µM,> 50 µM
COc1ccc(C(=N)N)cc1-c1cn(-c2ccc(C(=N)N)cc2)nn1,> 50 µM,> 50 µM
CC[C@@H](CO)NCCN[C@@H](CC)CO,> 50 µM,> 50 µM
Cc1ccc2cc(C3NC(=O)c4ccccc4N3)c(Cl)nc2c1 (configuration not stated),> 50 µM,> 50 µM
COc1ccc(-c2cnc3cnc(-c4cccc(OC(C)C)c4)cn23)cc1,> 50 µM,> 50 µM
CC(C)(CN)c1nc(-c2ccc(Cl)c(O)c2)c(-c2ccnc(N)n2)[nH]1,> 50 µM,> 50 µM
CCS(=O)(=O)N(Cc1ccco1)Cc1cc2ccc(C)cc2nc1O,> 50 µM,> 50 µM
CC(C)C(Oc1cccc2ccccc12)C(=O)O (configuration not stated),> 50 µM,> 50 µM
NC(=O)c1cc(-c2ccsc2)ccc1OCCOc1ccccc1,> 50 µM,> 50 µM
COc1ccc(OC)c(NCc2ccc3nc(N)nc(N)c3c2Cl)c1,50 µM,50 µM
